The values that follow come from patent US5277897A, “In vivo enhancement of cellular accumulation of lipophilic cationic organometallic compounds by reduction of intramembrane potential” (Brigham and Women's Hospital, priority 1992, dated 1994).

For series [1], the system named is cultured chick heart cells. Nature of the series: Effect of phloretin, alone or with TPB, on net uptake of Tc-MIBI in cultured chick heart cells (FIG. 7, 8). The series is classed as cell-based. Here is the method: FIG. 7. Effect of phloretin on net accumulation of Tc-M1B1 in cultured heart cells. Preparations were incubated for the times indicated in Tc-MIBI loading buffer in the absence (.quadrature.) or presence of phloretin ( , 10^-7 M; , 10^-4 M). Each point represents the mean ±SEM of 3-4 determinations.
FIG. 8. Effect of phloretin and tetraphenylborate together on net uptake of Tc-MB1 in cultured chick heart cells. Preparations were incubated in MEBSS containing Tc-MIBI for 30 minutes in the absence (control) or presence of tetraphenylborate and phloretin each alone or in combination as indicated on the abscissa. Each group of four conditions (two groups in A and one group in B) represent separate cultures. Error bars indicate ±SEM for three or more determinations.
(§1) Monolayers of spontaneously contractile chick ventricular myocardial cells were obtained from disaggregated 10-day old chick embryo hearts by a slight modification of previously published methods (Horres, C. R., et al., In Pinson, A. (ed.), The Heart Cell in Culture, Boca Raton, CRC Press, pp. 77-108 (1987)). […] Cells were centrifuged at 400 g for 10 minutes, resuspended and combined in culture medium, counted with a hemocytometer and diluted to yield a suspension of 5×10^5 cells/ml. […]
Radioactive uptake methods have been described in detail (Piwnica-Worms, D., et al, Circ. (in press). Briefly, coverslips with confluent cells were removed from culture media and pre-equilibrated for 40-60 seconds in MEBSS buffer. Uptake and retention experiments were initiated by immersion of coverslips in 60 mm glass Pyrex dishes containing loading solution consisting of buffer with 0.1-0.6 nM [^99m Tc-MIBI] (0.01-0.4 Ci/nmole; 25-100 uCi/ml). Preparations were removed at various times and rinsed three times in 25 ml volumes of ice-cold (2° C.) isotope-free buffer for 8 seconds each to clear extracellular spaces. […] Results were therefore expressed as fmol cellular Tc-MIBI/mg protein per nM extracellular Tc-MIBI concentration. […]

In the next series the test system is cells and mitochondria. Conditions: cited from earlier work.
Series [2] relates to cultured chick heart cells. Nature of the series: Influence of TPB and CCCP on (membrane potential-independent) accumulation of Tc-MIBI (FIG. 4). Conditions: CCCP 5 uM; presence and absence of TPB; P<0.001. The series is classed as cell-based. The protocol: FIG. 4. […] Preparations were incubated for the times indicated in 5.4 mM Ko control loading buffer containing tracer Tc-MIBI and TPB together (Δ) or in loading buffer containing Tc-MIBI alone (.quadrature.). For the latter incubation, TPB was added to the loading buffer at the arrow and cell content of Tc-MIBI subsequently determined (o). Under each condition, CCCP was added to the loading buffers as indicated by the arrows and cell content of Tc-MIBI determined ( , , ·). Each point is the mean ±SEM of 3 determinations.
(§2) Monolayers of spontaneously contractile chick ventricular myocardial cells were obtained from disaggregated 10-day old chick embryo hearts by a slight modification of previously published methods (Horres, C. R., et al., In Pinson, A. (ed.), The Heart Cell in Culture, Boca Raton, CRC Press, pp. 77-108 (1987)). Hearts were trimmed of connective tissue and atria, finely minced and serially exposed to 0.024% (w/v) trypsin in Ca^2+ - and Mg^2+ - free Earle's salt solution for 7 minutes at 37° C. Gentle trituration and agitation on an orbital shaker bath aided disaggregation. Cells released from the first exposure were discarded and cells aspirated from the next four exposures were then added to an equal volume of trypsin deactivating solution consisting of ice-cold culture medium. Cells were centrifuged at 400 g for 10 minutes, resuspended and combined in culture medium, counted with a hemocytometer and diluted to yield a suspension of 5×10^5 cells/ml. 12 ml of suspension were incubated in 100 mm plastic culture dishes containing 7 coverslips (25 mm diameter) placed on the bottom of each dish to serve as substrate for cell growth. Cells were maintained in a humidified atmosphere of 5% CO2 /95% air for 3-4 days yielding a confluent layer of spontaneously contractile myocytes on each coverslip.
Radioactive uptake methods have been described in detail (Piwnica-Worms, D., et al, Circ. (in press). Briefly, coverslips with confluent cells were removed from culture media and pre-equilibrated for 40-60 seconds in MEBSS buffer. Uptake and retention experiments were initiated by immersion of coverslips in 60 mm glass Pyrex dishes containing loading solution consisting of buffer with 0.1-0.6 nM [^99m Tc-MIBI] (0.01-0.4 Ci/nmole; 25-100 uCi/ml). Preparations were removed at various times and rinsed three times in 25 ml volumes of ice-cold (2° C.) isotope-free buffer for 8 seconds each to clear extracellular spaces. Preparations and aliquots of the loading buffer and stock solutions were counted in a well-type sodium iodide gamma counter after which cell protein on each coverslip was extracted in 1% sodium dodecylsulfate with 10 mM sodium borate and assayed by the method of Lowry (Lowry, O. H., et al., J. Biol. Chem. 193:265-275 (1951)). Tc-MIBI binding to glass coverslips without cells was used as an estimate of non-specific adhesion to the substrate ([…] obtained with cellular preparations); this value was subtracted from total uptake determinations to derive the cell-associated counts. Use of generator equilibrium equations (Lamson, M. L., et al., i J. Nucl. Med. 16:639-641 (1975)) allowed calculation of absolute moles of Tc-MIBI in solutions and preparations. Results were therefore expressed as fmol cellular Tc-MIBI/mg protein per nM extracellular Tc-MIBI concentration. […]

In series [3] the test system is cultured chick myocardial cells. Conditions: cited from earlier work.
In series [4] the test system is cultured chick heart cells. Put plainly: Effect of valinomycin on tetraphenylborate enhancement of Tc-MIBI accumulation in high Ko buffer (Table 1). In kind it is cell-based. Conditions: valinomycin 1 ug/ml; high K buffer. The protocol:
as §2
Radioactive uptake methods have been described in detail (Piwnica-Worms, D., et al, Circ. (in press). Briefly, coverslips with confluent cells were removed from culture media and pre-equilibrated for 40-60 seconds in MEBSS buffer. Uptake and retention experiments were initiated by immersion of coverslips in 60 mm glass Pyrex dishes containing loading solution consisting of buffer with 0.1-0.6 nM [^99m Tc-MIBI] (0.01-0.4 Ci/nmole; 25-100 uCi/ml). Preparations were removed at various times and rinsed three times in 25 ml volumes of ice-cold (2° C.) isotope-free buffer for 8 seconds each to clear extracellular spaces. Preparations and aliquots of the loading buffer and stock solutions were counted in a well-type sodium iodide gamma counter after which cell protein on each coverslip was extracted in 1% sodium dodecylsulfate with 10 mM sodium borate and assayed by the method of Lowry (Lowry, O. H., et al., J. Biol. Chem. 193:265-275 (1951)). Tc-MIBI binding to glass coverslips without cells was used as an estimate of non-specific adhesion to the substrate ([…] obtained with cellular preparations); this value was subtracted from total uptake determinations to derive the cell-associated counts. Use of generator equilibrium equations (Lamson, M. L., et al., i J. Nucl. Med. 16:639-641 (1975)) allowed calculation of absolute moles of Tc-MIBI in solutions and preparations. Results were therefore expressed as fmol cellular Tc-MIBI/mg protein per nM extracellular Tc-MIBI concentration. Division of this value by the cell water space (6.9 ul/mg protein; Chiu, M. L., et al., J. Nucl. Med. (31:1646-1653(1990)) yields a nominal intracellular/extracellular Tc-MIBI accumulation ratio neglecting subcellular compartmentation of the agent.
To further explore the influence of TPB on any potential-independent accumulation of Tc-MIBI in myocytes, preparations were exposed to 130 mM K° 20 mM Clo buffer (Table 1). […] Equilibration of intracellular and extracellular spaces occurred in the presence of high K buffer plus valinomycin under all conditions (in/out ration ~1; P=NS) indicating the lack of any significant potential-independent membrane binding of Tc-MIBI.
Preparations were incubated in high Ko low Clo loading buffer +/- valinomycin (1 ug/ml) for 20 minutes in the presence of TPB (10^-5 M) or for 40 minutes in its absence to determine peak accumulation of Tc-MIBI under each condition. Values are the mean ±SEM. Tc-MIBI in/out ratios were obtained by dividing net uptake values by the cell water space of […] (Chiu, M. L., et al., J. Nucl. 31:1646-1653 (1990)). +p<0.01; * p<0.001 compared to net uptake in 130 mM Ko buffer.

The subject of series [5] is cultured chick heart cells. Nature of the series: Effect of MSA on Tc-MIBI net accumulation (FIG. 3). The series is classed as cell-based. Conditions: MSA 5.4 mM. Here is the method: FIG. 3. Effect of MSA on Tc-MIBI net accumulation. Preparations were incubated for the times indicated in Tc-MIBI loading buffer containing 5.4 mM KCl (.quadrature., .smallcircle.) or 5.4 mM K-MSA ( , ·; prepared by equimolar substitution of K-MSA KCl) in the absence (.quadrature., ) or presence (.smallcircle., ·) of TPB (10^-5 M). Each point represents the mean ±SEM of 3 determinations.
Control buffer was a modified Earle's balanced salt solution (MEBSS) with the following composition (mN) Na^30, 145; K^+, 5.4; Ca^2, 1.2; Mg^2+, 0.8; Cl, 152; H2 PO4, 0.8; SO4^2-, 0.8; dextrose, 5.6; HEPES, 4.0; and bovine calf serum, 1% (v/v); […]; 37° C. K-methanesulfonate was made by titration of methanesulfonic acid with KOH (Piwnica-Worms, D., et al., J. Gen. Physiol. 81:731-748 (1983)) and replaced […] in some solutions by equimolar substitution where indicated. Natetraphenylborate, CCCP, bumetanide and valinomycin were dissolved into DMSO prior to addition to buffer. DMSO alone has no significant affect on contractile activity, action potential configuration (Lieberman, M., et al., Dev. Biol. 31:380-403 (1973)) or Tc-MIBI uptake kinetics (Piwnica-Worms, D., et al., Circ. (in press)).
as §1
Radioactive uptake methods have been described in detail (Piwnica-Worms, D., et al, Circ. (in press). Briefly, coverslips with confluent cells were removed from culture media and pre-equilibrated for 40-60 seconds in MEBSS buffer. Uptake and retention experiments were initiated by immersion of coverslips in 60 mm glass Pyrex dishes containing loading solution consisting of buffer with 0.1-0.6 nM [^99m Tc-MIBI] (0.01-0.4 Ci/nmole; 25-100 uCi/ml). Preparations were removed at various times and rinsed three times in 25 ml volumes of ice-cold (2° C.) isotope-free buffer for 8 seconds each to clear extracellular spaces. Preparations and aliquots of the loading buffer and stock solutions were counted in a well-type sodium iodide gamma counter after which cell protein on each coverslip was extracted in 1% sodium dodecylsulfate with 10 mM sodium borate and assayed by the method of Lowry (Lowry, O. H., et al., J. Biol. Chem. 193:265-275 (1951)). […]

In the case of `O=C(CCc1ccc(O)cc1)c1c(O)cc(O)cc1O` [phloretin, 3-(4-hydroxyphenyl)-1-(2,4,6-trihydroxyphenyl)-1-propanone], the fold induction at 100 µM in series [1] (Gallus gallus, 0.5 h, phloretin 10^-4 M, 30 minute uptake (FIG. 8), approximately, read-out: net retention of Tc-MIBI above control levels) lay in the range of 2.5 to 3.5. Besides, in series [1] (phloretin 10^-4 M and 10^-5 M with 10^-5 M TPB, 30 minutes), the “additive enhancement by tetraphenylborate and phloretin” value was “no evidence of additive enhancement by tetraphenylborate and phloretin”. In addition, the “net uptake of Tc-MIBI enhanced above control” value in series [1] (phloretin 10^-4 M, within 30 minutes (FIG. 7)) is reported as “five-fold”. Consider `COC(=O)c1ccccc1-c1c2ccc(=N)cc-2oc2cc(N)ccc12` [rhodamine 123], for which, in the series with cells and mitochondria, the “toxicity to cells and mitochondria” value is “shown to be toxic to cells and mitochondria”. Besides, the “toxic effects on mitochondrial function” value in the series on cells and mitochondria (typical loading activities) is listed as “toxic effects on mitochondrial function”.

For the molecule `N#CC(C#N)=NNc1cccc(Cl)c1` [CCCP, carbonyl cyanide-m-chlorphenylhydrazone, reference compound], the “release of myocellular Tc-MIBI” value in series [2] is “rapid and near complete release of myocellular Tc-MIBI”. Also, the “unidirectional influx and net cellular accumulation of Tc-MIBI” value in series [3] (CCCP, mitochondrial depolarization) was “decreases the unidirectional influx and net cellular accumulation of TC-MIBI”.

Turning to `CC[C@H]1/C=C/C=C/C[C@@H](C)[C@H](O)[C@@](C)(O)C(=O)[C@@H](C)[C@H](O)[C@@H](C)C(=O)[C@@H](C)[C@H](O)[C@@H](C)/C=C/C(=O)O[C@@H]2[C@H](C)[C@H](CC1)O[C@]1(CC[C@H](C)[C@H](C[C@@H](C)O)O1)[C@H]2C` [oligomycin], in series [3] (oligomycin, mitochondrial hyperpolarization), the “Tc-MIBI uptake or retention” value is listed as “increases Tc-MIBI uptake or retention”.

`CC(C)[C@@H]1NC(=O)[C@H](C)OC(=O)[C@@H](C(C)C)NC(=O)[C@@H](C(C)C)OC(=O)[C@H](C(C)C)NC(=O)[C@H](C)OC(=O)[C@@H](C(C)C)NC(=O)[C@@H](C(C)C)OC(=O)[C@H](C(C)C)NC(=O)[C@H](C)OC(=O)[C@@H](C(C)C)NC(=O)[C@@H](C(C)C)OC1=O` [valinomycin, reference compound]: in series [4], the “net accumulation of Tc-MIBI” value is recorded as “eliminated net accumulation of Tc-MIBI”. As for `CS(=O)(=O)O` [MSA, methanesulfonate, reference compound], in series [5], the “uptake kinetics or equilibrium content of Tc-MIBI” value was “did not significantly alter uptake kinetics or equilibrium content of Tc-MIBI”. In series [5] (TPB 10^-5 M), the “TPB-induced enhancement of Tc-MIBI accumulation” value was “did not interfere with the TPB-induced enhancement of Tc-MIBI accumulation”. In the case of `[N-]=[N+]=[N-]` [sodium azide], the “net uptake of Tc-MIBI” value in series [3] (sodium azide in combination with oligomycin) was “virtually eliminates net uptake of the agent”. Consider `CO[C@@H]1C[C@@H](C[C@H]2CC[C@H](C)[C@H]([C@@H](C)C(=O)O)O2)O[C@]2(O[C@](C)([C@H]3CC[C@@](C)([C@@H]4O[C@@H]([C@H]5O[C@@](O)(CO)[C@H](C)C[C@@H]5C)C[C@@H]4C)O3)C[C@H]2C)[C@@H]1C` [nigericin], for which the “net cellular uptake of Tc-MIBI” value in series [3] (nigericin, mitochondrial hyperpolarization) was “increases net cellular uptake of Tc-MIBI”.
